Data: ChEMBL document CHEMBL1151757, “Synthesis, radiosynthesis, and biological evaluation of fluorine-18-labeled 2beta-carbo(fluoroalkoxy)-3beta-(3'-((Z)-2-haloethenyl)phenyl)nortropanes: candidate radioligands for in vivo imaging of the serotonin transporter with positron emission tomography” (J Med Chem, 2008)

Experiments:
Assay type in all cases: ADME, organism-based, Macaca fascicularis
[1] = Ratio of drug uptake in pons to cerebellum in anesthetized cynomolgus monkey after 35 mins postinjection; details: in vivo
[2] = Ratio of drug uptake in pons to cerebellum in anesthetized cynomolgus monkey after 85 mins postinjection; details: in vivo
[3] = Ratio of drug uptake in pons to cerebellum in anesthetized cynomolgus monkey after 125 mins postinjection; details: in vivo
[4] = Ratio of drug uptake in pons to cerebellum in anesthetized cynomolgus monkey after 185 mins postinjection; details: in vivo
[5] = Ratio of drug uptake in medulla to cerebellum in anesthetized cynomolgus monkey after 65 mins postinjection; details: in vivo
[6] = Drug uptake in anesthetized cynomolgus monkey brain occipital lobe after 2.5 mins postinjection; details: in vivo
[7] = Drug uptake in anesthetized cynomolgus monkey brain occipital lobe after 3.5 mins postinjection; details: in vivo
[8] = Drug uptake in anesthetized cynomolgus monkey brain frontal lobe after 2.5 mins postinjection; details: in vivo
[9] = Drug uptake in anesthetized cynomolgus monkey brain frontal lobe after 3.5 mins postinjection; details: in vivo
[10] = Drug uptake in anesthetized cynomolgus monkey brain frontal lobe after 6.5 mins postinjection; details: in vivo
[11] = Drug uptake in anesthetized cynomolgus monkey brain frontal lobe after 35 mins postinjection; details: in vivo
[12] = Drug uptake in anesthetized cynomolgus monkey brain frontal lobe after 45 mins postinjection; details: in vivo, 0.75 h
[13] = Drug uptake in anesthetized cynomolgus monkey brain frontal lobe after 75 mins postinjection; details: in vivo, 1.25 h
[14] = Drug uptake in anesthetized cynomolgus monkey brain frontal lobe after 175 mins postinjection; details: in vivo
[15] = Ratio of drug uptake in midbrain to cerebellum in anesthetized cynomolgus monkey after 215 mins postinjection; details: in vivo
[16] = Ratio of drug uptake in pons to cerebellum in anesthetized cynomolgus monkey after 1.5 mins postinjection; details: in vivo, 0.025 h
[17] = Ratio of drug uptake in occipital lobe to cerebellum in anesthetized cynomolgus monkey after 105 mins postinjection; details: in vivo, 1.75 h
[18] = Ratio of drug uptake in occipital lobe to cerebellum in anesthetized cynomolgus monkey after 115 mins postinjection; details: in vivo
[19] = Ratio of drug uptake in occipital lobe to cerebellum in anesthetized cynomolgus monkey after 135 mins postinjection; details: in vivo, 2.25 h
Putamen [20] = experiment: Drug uptake in anesthetized cynomolgus monkey brain putamen after 155 mins postinjection; details: in vivo
Putamen [21] = experiment: Drug uptake in anesthetized cynomolgus monkey brain putamen after 175 mins postinjection; details: in vivo
Putamen [22] = experiment: Drug uptake in anesthetized cynomolgus monkey brain putamen after 215 mins postinjection; details: in vivo
Thalamus = experiment: Drug uptake in anesthetized cynomolgus monkey brain thalamus after 0.5 mins postinjection; details: in vivo
[23] = Ratio of drug uptake in occipital lobe to cerebellum in anesthetized cynomolgus monkey after 235 mins postinjection; details: in vivo
[24] = Ratio of drug uptake in occipital lobe to cerebellum in anesthetized cynomolgus monkey after 205 mins postinjection; details: in vivo
[25] = Ratio of drug uptake in frontal lobe to cerebellum in anesthetized cynomolgus monkey after 125 mins postinjection; details: in vivo
Midbrain [26] = experiment: Drug uptake in anesthetized cynomolgus monkey brain midbrain after 165 mins postinjection; details: in vivo, 2.75 h
Midbrain [27] = experiment: Drug uptake in anesthetized cynomolgus monkey brain midbrain after 235 mins postinjection; details: in vivo
Pons [28] = experiment: Drug uptake in anesthetized cynomolgus monkey brain pons after 3.5 mins postinjection; details: in vivo
Pons [29] = experiment: Drug uptake in anesthetized cynomolgus monkey brain pons after 27.5 mins postinjection; details: in vivo
Pons [30] = experiment: Drug uptake in anesthetized cynomolgus monkey brain pons after 95 mins postinjection; details: in vivo
Medulla = experiment: Drug uptake in anesthetized cynomolgus monkey brain medulla after 205 mins postinjection; details: in vivo
[31] = Drug uptake in anesthetized cynomolgus monkey brain occipital lobe after 195 mins postinjection; details: in vivo, 3.25 h

`O=C(OCCC[18F])C1C2CCC(CC1c1cccc(/C=C\I)c1)N2` (stereo not drawn) showed a Ratio [1] of 0.9, a Ratio [2] of 1.1 and a Ratio [3] of 1.4. For the same compound, the Ratio [4] was 1.5, the Ratio [5] was 1.2 and the Drug uptake [6] was 0.62. The Drug uptake [7] was 1.29, the Drug uptake [8] was 0.5 and the Drug uptake [9] was 0.83. For the same compound, the Drug uptake [10] was 1.88, the Drug uptake [11] was 2.85 and the Drug uptake [12] was 2.84. For the same compound, the Drug uptake [13] was 2.76, the Drug uptake [14] was 2.05 and the Ratio [15] was 1.8. For the same compound, the Ratio [16] was 0.8, the Ratio [17] was 1 and the Ratio [18] was 1. It also gave a Ratio [19] of 1.1, a Drug uptake (Putamen [20]) of 3.8 and a Drug uptake (Putamen [21]) of 3.61. The Drug uptake (Putamen [22]) was 3.13, the Drug uptake (Thalamus) was 0.01 and the Ratio [23] was 1. It also gave a Ratio [24] of 1.2, a Ratio [25] of 0.9 and a Drug uptake (Midbrain [26]) of 4.26. The Drug uptake (Midbrain [27]) was 3.57, the Drug uptake (Pons [28]) was 1.71 and the Drug uptake (Pons [29]) was 4.39. It also gave a Drug uptake (Pons [30]) of 4.41, a Drug uptake (Medulla) of 3.76 and a Drug uptake [31] of 2.34.
